Patent US20230272009A1, “Peptide, Peptide Salt, Pharmaceutical Composition and Biological Tissue Calcification Inhibitor” (Hiroshima University, priority 2020, published 2023)
Square brackets hold non-standard residues; d marks the D form. Ends that are not written are not given here. pS = N[C@@H](COP(=O)(O)O)C(=O)O

Legend:
[1] = tested on: mouse osteoblast strain MC3T3-E1; test: Examination of in vitro calcification inhibitory activity (von Kossa staining of matrix calcification); format: cell-based; conditions: relative to Comparative Example 2 set at 100, MC3T3-E1, 3 mM βGP, 24 hours
Experimental: A mouse osteoblast strain MC3T3-E1 was cultured in a bone differentiation medium (α MEM (Eagle’s minimum essential medium, alpha modification) + 50 µg/mL ascorbic acid, 10% fetal calf serum) to form osteoid-like nodules. In order to induce calcification, 3 mM β-glycerophosphoric acid (hereinafter, “βGP”) was added together with a test substance to the medium. The strain was cultured for 24 hours after the addition of the test substance, and cells were washed with PBS, immobilized with 10% neutral buffered formalin, and then subjected to von Kossa staining. The matrix calcification was evaluated by measurement of calcium spots stained with von Kossa in the extracellular matrices of alkaline phosphatase (ALP)-stained positive cells, which were osteoblastic markers, with a stereoscopic microscope.

[2] = tested on: ddY mice; test: Evaluation of safety, influence on osteogenesis (4-week continuous intravenous administration); format: in vivo, mouse; conditions: 4 weeks
Experimental: Thus, toxicity, particularly an influence on osteogenesis was examined using Comparative Example 2, as described below.
Catheters were indwelled in the jugular veins of 6-week-old ddY mice, and Comparative Example 2 was continuously administered at a high dose (1 mg/mouse/day) or low dose (0.1 mg/mouse/day) for 4 weeks using an osmotic pump (manufactured by Alzert). The low dose is 10 or more times as much as an effective drug efficacy concentration. Evaluation items were set to a body weight, the amount of intake of a food and drink, blood biochemistry (including calcium and phosphoric acid), the weights of principal organs, and histopathology. Moreover, bone structures were evaluated by µCT, and bone strengths were evaluated in a three-point bending test.

[3] = Evaluation of stability: residual rate in PBS by HPLC; format: physicochemical; conditions: 37° C., 7 days or 14 days, HPLC peak area, sample before use set at 100
Experimental: (§1) The amount of 1/20 to 1/25 of Comparative Example 2 or Example 5 (each 100 mM) was added to PBS or C57BL/6 mouse serum, and incubated at 37° C. for 7 days or 14 days. In measurement using the serum, 4 M perchloric acid (PCA) of which the amount was equal to the amount of a sample was added, and the resultant was diluted to 2-fold with MQ water and left to stand on ice for 5 minutes. The supernatant obtained by centrifugation for 2 minutes was subjected to HPLC (ODS column and 0.1% TFA/ acetonitrile). The residual rates of the test substances were calculated in a case in which the peak area of a sample adjusted before use was set at 100.

[4] = tested on: thoracic aorta; test: Calcification of cultured thoracic aorta rings under high phosphate load (headed 'in vivo calcification inhibitory activity'); format: cell-based, C57BL/6 mouse; conditions: for Calcification of thoracic aorta tissue (alizarin red staining): versus PBS solvent
Experimental: The thoracic aorta was harvested from a C57BL/6 mouse (10-week-old male), and then cut into ring-shaped portions (2 to 3 mm), which were cultured in 10% FCS DMEM (Dulbecco’s Moodified Eagle’s Medium, high glucose). From the next day, the peptides were added, and the resultants were loaded together with phosphoric acid having a high concentration (sodium phosphate, final concentration of 3 mM), and cultured for 10 days. The tissues immobilized with PFA were stained with alizarin red, and the vessel walls were incised and opened, and observed with a stereoscopic microscope. Moreover, the contents of calcium in liquid extracts obtained by decalcifying the vessels, cultured in a similar manner, with 10% formic acid for 24 hours were measured using a calcium quantification kit (Calcium C-test Wako, manufactured by Wako Pure Chemical Industries, Ltd.).

[5] = Evaluation of stability: residual rate in mouse serum by HPLC; format: in vitro ADME; conditions: C57BL/6 mouse serum, 37° C., 7 days or 14 days
Experimental: as §1

[6] = tested on: Enpp1 mutated mice (C57BL/6J-Enpp1asj/asj); test: Evaluation of drug efficacy in GACI model (aortic calcification score); format: in vivo, mouse; conditions: high phosphorus diet, continuous intravenous administration for 2 weeks by osmotic pump
Excerpt: The biallelic mutation of an Enpp1 gene is observed at 75% of GACI. Thus, the drug efficacy of the peptide was examined using Enpp1 mutated mice. Fertilized eggs from the Enpp1 mutated mice (C57BL/6J-Enpp1^asj/asj) were transplanted into ICR mice, and bred with a high phosphorus diet (AIN-93G-based, 0.4% Ca, 0.85% P, 0.04% Mg) immediately after deliveries. Male Enpp1^asj mice were weaned from the mothers 4 weeks after the births, and fed with a high phosphorus diet during an experimental period. […] A catheter was indwelled in the right cervical vein 6 to 7 weeks after the birth, and Example 5 was continuously administered for 2 weeks by an osmotic pump (manufactured by Altez). The thoracic (ventral) aorta was harvested, then immobilized with 4% para-formaldehyde PBS, washed, and then stained with alizarin red 0.5% KOH. The tissue was washed, and then preserved in 70% EtOH. For the obtained tissue, the calcification of the alizarin red-positive region of the thoracic aorta was scored (maximum value of 3) under the stereoscopic microscope.

[7] = tested on: caALK2Q207D mice; test: Evaluation of drug efficacy in FOP model (µCT of leg region); format: in vivo; conditions: Ad-Cre intramuscular, intraperitoneal 0.03 mg/mouse/day, day 6
Experimental: Cre recombinase recombinant adenovirus (Ad-Cre, manufactured by Vector Biolabs) was intramuscularly administered (2 × 10^7 pfu) to the crural muscles (triceps muscles) of 7-day-old caALK2Q207D mice (Paul B Yu and the 14 others, “BMP type I receptor inhibition reduces heterotopic ossification” Nat Med, 2008, 14(12), 1363-1369). Next day, Example 5 was intraperitoneally administered (0.03 mg/mouse/day). On day 6, the leg region was immobilized with 4% para-formaldehyde PBS, and µCT images were acquired.

[8] = aorta rings, sodium phosphate 3 mM, cultured 10 days

SSESSESGSSSESD (SEQ ID NO:13) (SSESSESGSS[pS]E[pS]D) [Example 4]
Calcification inhibitory activity (relative) [1]: 110<

RDDSSESSDSGSSSESDGD (SEQ ID NO:11) (RDDSSESSDSG[pS]S[pS]E[pS]DGD) [Comparative Example 2, reference compound]
Abnormal findings in body weight, intake of food and drink, blood biochemistry, weights of principal organs, histopathology ([2]; 1 mg/mouse/day or 0.1 mg/mouse/day continuous intravenous): Any abnormal findings were not observed
Bone volume (BV), bone mineral content (BMC), bone mineral density (BMD), bone strength (maximum load) versus PBS ([2]; high and low doses, µCT and three-point bending test): no significant differences
Residual rate in PBS [3]: decreased over time
Calcification inhibitory activity (relative) [1]: 100
Calcification of thoracic aorta tissue (alizarin red staining) [4, 8]: calcification was inhibited

SSESSESGSSSESD (SEQ ID NO:9) (SSESSESG[pS]S[pS]E[pS]D) [Example 3]
Calcification inhibitory activity (relative) [1]: 200<

DDSSESSDSGSSSESD (SEQ ID NO:12) (DDSSESSDSG[pS]S[pS]E[pS]D) [Example 1]
Calcification inhibitory activity (relative) [1]: 100

RDDSSESSDSGSSSESDGD (SEQ ID NO:10) (ASARM peptide) [Comparative Example 1, reference compound]
Calcification inhibitory activity (relative) [1]: 0

SSESSDSGSSSESD (SEQ ID NO:8) (SSESSDSG[pS]S[pS]E[pS]D) [Example 2]
Calcification inhibitory activity (relative) [1]: 100

Ac-SSESSESGSSSESD(C)-NH2 (N-Ac/chloroacetyl thioether cyclised, added C-terminal Cys amide; Phosphopeptide; MOD_RES (9)..(9) PHOSPHORYLATION; MOD_RES (11)..(11) PHOSPHORYLATION; MOD_RES (13)..(13) PHOSPHORYLATION) [Example 5]
Residual rate in mouse serum [5]: inhibited in comparison with Comparative Example 2
Vascular calcification (calcification score of thoracic aorta, maximum value of 3) [6]: inhibited
Calcification in leg region (µCT images) [7]: no calcification was confirmed
Residual rate in PBS [3]: not decreased
Calcification inhibitory activity (relative) [1]: 500-1000<
Calcium content per protein ([4]; aorta rings loaded with phosphoric acid (Pi), decalcified with 10% formic acid, compared with Comparative Example 2): less than that in Comparative Example 2
Calcification inhibitory effect compared with Comparative Example 2 (alizarin red staining) [4, 8]: superior to that in Comparative Example 2
Calcification of thoracic aorta tissue (alizarin red staining) [4, 8]: calcification was inhibited
